Assays:
MCF-7 cells = assay: CellTiter-Glo Luminescent Cell Viability Assay, MCF-7; assay type: cell-based, human; conditions: for IC50: MCF-7 cells, 48 h, mean of three independent experiments
Experimental: (§1) The in vitro anti-proliferative activities of all the novel synthesized compounds were evaluated against HepG2 cells and MCF-7 cells by CellTiter-Glo® Luminescent Cell Viability Assay, using paclitaxel (a clinically used drug) as a positive control. Emodin (1) and compound 2 were also included for comparison.
(§2) HepG2 cells and MCF-7 cells were purchased from American Type Culture Collection (ATCC, Manassas, VA, USA). Cells were cultured in T75 flask (430641, Corning, New York, NY, USA), supplemented with high-glucose DMEM medium (Dulbecco’s modified Eagle’s medium, 11965-092, Gibco, New York, NY, USA) containing 10% Fetal bovine serum (FBS) and 1% penicillin (100 units/mL)-streptomycin (100 µg/mL) in a humidified incubator at 37 °C under 5% CO2 and 95% relative humidity (RH) atmosphere. The cells were harvested for metabolomics experiments using cell scrapers.
(§3) HepG2 cells and MCF-7 cells in 40 µL DMEM supplemented with 10% FBS were seeded at a density of 500 cells/well in 384-well cell culture plate (3570, Corning), respectively. After 24 h, the medium was substituted with fresh medium containing various sample solutions in DMSO (0.5%, v/v) at a dose range of 0.14–100 µM with 3-fold serial dilutions, and cells were cultured for another 48 h. Cells were cultured in medium without samples but 0.5% DMSO served as a control. All measurements were determined in triplicate for each treatment. After the sample treatment for 48 h, 20 µL CellTiter-Glo (G7573, Promega, Fitchburg, WI, USA) was added to each well containing cells and the contents were mixed for 2 min on an orbital shaker to induce cell lysis. The plates were then incubated at room temperature for 20 min to stabilize the luminescent signal. The luminescence was recorded on an Envision 2014 (Perkin Elmer, Waltham, MA, UAS). The IC50 values represented the samples’ concentrations required to inhibit 50% of cell proliferation and were calculated from a calibration curve by linear regression using GraphPad Prism 7.0 software (GraphPad Software, San Diego, CA, USA).

L02 cells = assay: Cytotoxic activity against human normal liver cells (L02); assay type: cell-based; conditions: Homo sapiens, L02, human normal liver L02 cells
HepG2 cells = assay: CellTiter-Glo Luminescent Cell Viability Assay, HepG2; assay type: cell-based, human; conditions: for IC50: HepG2 cells, 48 h, mean of three independent experiments
Experimental: as §1, §2, §3

Compound | IC50 (MCF-7 cells; Homo sapiens, MCF7, 48 h) [µM] | IC50 (HepG2 cells; Homo sapiens, HepG2, 48 h) [µM] | also measured
Cc1cc(O)c2c(c1)C(=O)c1cc(OCCOC(=O)[C@@H](C)N)cc(O)c1C2=O [Compound 3b, (R)-1-(2-(4,5-Dihydroxy-7-methyl-9,10-dioxo-9,10-dihydroanthracen-2-yloxy)ethoxy)-1-oxopropan-2-aminium 2,2,2-trifluoroacetate] | 8.99 ± 0.64 | 8.22 ± 0.13 | IC50 (L02 cells): 33.6 ± 0.36 µM
Cc1cc(O)c2c(c1)C(=O)c1cc(OCCOC(=O)[C@H](C)N)cc(O)c1C2=O [Compound 3c, (S)-1-(2-(4,5-Dihydroxy-7-methyl-9,10-dioxo-9,10-dihydroanthracen-2-yloxy)ethoxy)-1-oxopropan-2-aminium 2,2,2-trifluoroacetate] | 10.2 ± 0.96 | 9.52 ± 0.22 | IC50 (L02 cells): 37.3 ± 0.78 µM
CN[C@H](C)C(=O)OCCOc1cc(O)c2c(c1)C(=O)c1cc(C)cc(O)c1C2=O [Compound 4a, (R)-1-(2-(4,5-Dihydroxy-7-methyl-9,10-dioxo-9,10-dihydroanthracen-2-yloxy)ethoxy)-N-methyl-1-oxo-propan-2-aminium 2,2,2-trifluoroacetate] | 23.2 ± 0.33 | 13.7 ± 0.89 | 
CN[C@@H](C)C(=O)OCCOc1cc(O)c2c(c1)C(=O)c1cc(C)cc(O)c1C2=O.O=C(O)C(F)(F)F [Compound 4b, (S)-1-(2-(4,5-Dihydroxy-7-methyl-9,10-dioxo-9,10-dihydroanthracen-2-yloxy)ethoxy)-N-methyl-1-oxo-propan-2-aminium 2,2,2-trifluoroacetate] | 68.8 ± 2.25 | 40 ± 2.85 | activity reduction compared to emodin (1) (MCF-7 cells; MCF-7 cell lines): 6 fold
Cc1cc(O)c2c(c1)C(=O)c1cc(OCCOC(=O)[C@@H](C)N(C)C)cc(O)c1C2=O [Compound 5a, (R)-1-(2-(4,5-Dihydroxy-7-methyl-9,10-dioxo-9,10-dihydroanthracen-2-yloxy)ethoxy)-N,N-dimethyl-1-oxo-propan-2-aminium 2,2,2-trifluoroacetate] | 25.2 ± 1.92 | 18.1 ± 2.79 | 
Cc1cc(O)c2c(c1)C(=O)c1cc(OCCOC(=O)[C@H](C)N(C)C)cc(O)c1C2=O [Compound 5b, (S)-1-(2-(4,5-Dihydroxy-7-methyl-9,10-dioxo-9,10-dihydroanthracen-2-yloxy)ethoxy)-N,N-dimethyl-1-oxo-propan-2-aminium 2,2,2-trifluoroacetate] | 16.2 ± 0.67 | 18.6 ± 2.07 | 
Cc1cc(O)c2c(c1)C(=O)c1cc(OCCCOC(=O)[C@H](C)N)cc(O)c1C2=O [Compound 7b, (S)-1-(3-(4,5-Dihydroxy-7-methyl-9,10-dioxo-9,10-dihydroanthracen-2-yloxy)propoxy)-1-oxopropan-2-aminium 2,2,2-trifluoroacetate] | 6.47 ± 0.18 | 6.47 ± 0.21 | 
Cc1cc(O)c2c(c1)C(=O)c1cc(OCCCCOC(=O)[C@@H](C)N)cc(O)c1C2=O [Compound 7c, (R)-1-(4-(4,5-Dihydroxy-7-methyl-9,10-dioxo-9,10-dihydroanthracen-2-yloxy)butoxy)-1-oxopropan-2-aminium 2,2,2-trifluoroacetate] | 12.7 ± 0.55 | 11.4 ± 1.69 | 
Cc1cc(O)c2c(c1)C(=O)c1cc(OCCCCOC(=O)[C@H](C)N)cc(O)c1C2=O [Compound 7d, (S)-1-(4-(4,5-Dihydroxy-7-methyl-9,10-dioxo-9,10-dihydroanthracen-2-yloxy)butoxy)-1-oxopropan-2-aminium 2,2,2-trifluoroacetate] | 14.9 ± 0.57 | 11 ± 1.47 | 
Cc1cc(O)c2c(c1)C(=O)c1cc(OCCCCCOC(=O)[C@@H](C)N)cc(O)c1C2=O [Compound 7e, (R)-1-(5-(4,5-Dihydroxy-7-methyl-9,10-dioxo-9,10-dihydroanthracen-2-yloxy)pentyloxy)-1-oxopropan-2-aminium 2,2,2-trifluoroacetate] | 9.11 ± 0.67 | 8.58 ± 0.77 | IC50 (L02 cells): 27.7 ± 0.54 µM
Cc1cc(O)c2c(c1)C(=O)c1cc(OCCCCCOC(=O)[C@H](C)N)cc(O)c1C2=O [Compound 7f, (S)-1-(5-(4,5-Dihydroxy-7-methyl-9,10-dioxo-9,10-dihydroanthracen-2-yloxy)pentyloxy)-1-oxopropan-2-aminium 2,2,2-trifluoroacetate] | 15.8 ± 1.45 | 10.6 ± 0.97 | IC50 (L02 cells): 24.3 ± 0.68 µM
Cc1cc(O)c2c(c1)C(=O)c1cc(OCCOCCOC(=O)[C@@H](C)N)cc(O)c1C2=O [Compound 7g, (R)-1-(2-(2-(4,5-Dihydroxy-7-methyl-9,10-dioxo-9,10-dihydroanthracen-2-yloxy)ethoxy)ethoxy)-1-oxo-propan-2-aminium 2,2,2-trifluoroacetate] | 12.6 ± 0.46 | 15.2 ± 0.66 | 
Cc1cc(O)c2c(c1)C(=O)c1cc(OCCOCCOC(=O)[C@H](C)N)cc(O)c1C2=O [Compound 7h, (S)-1-(2-(2-(4,5-Dihydroxy-7-methyl-9,10-dioxo-9,10-dihydroanthracen-2-yloxy)ethoxy)ethoxy)-1-oxo-propan-2-aminium 2,2,2-trifluoroacetate] | 12.5 ± 0.44 | 11.4 ± 0.47 | 
Cc1cc(O)c2c(c1)C(=O)c1cc(OCCOCCOCCOC(=O)[C@@H](C)N)cc(O)c1C2=O [Compound 7i, (R)-1-(2-(2-(2-(4,5-Dihydroxy-7-methyl-9,10-dioxo-9,10-dihydroanthracen-2-yloxy)ethoxy)ethoxy)ethoxy)-1-oxopropan-2-aminium 2,2,2-trifluoroacetate] | 20.8 ± 1.87 | 28.7 ± 0.87 | 
Cc1cc(O)c2c(c1)C(=O)c1cc(OCCOCCOCCOC(=O)[C@H](C)N)cc(O)c1C2=O [Compound 7j, (S)-1-(2-(2-(2-(4,5-Dihydroxy-7-methyl-9,10-dioxo-9,10-dihydroanthracen-2-yloxy)ethoxy)ethoxy)ethoxy)-1-oxopropan-2-aminium 2,2,2-trifluoroacetate] | 25.6 ± 0.58 | 31.9 ± 2.77 | 
Cc1cc(O)c2c(c1)C(=O)c1cc(OCCOCCOCCOCCOC(=O)[C@@H](C)N)cc(O)c1C2=O [Compound 7k, (R)-1-(4,5-Dihydroxy-7-methyl-9,10-dioxo-9,10-dihydroanthracen-2-yloxy)-13-oxo-3,6,9,12-tetraoxapenta-decan-14-aminium 2,2,2-trifluoroacetate] | 37.8 ± 2.44 | 37.2 ± 2.44 | 
Cc1cc(O)c2c(c1)C(=O)c1cc(OCCOCCOCCOCCOC(=O)[C@H](C)N)cc(O)c1C2=O [Compound 7l, (S)-1-(4,5-Dihydroxy-7-methyl-9,10-dioxo-9,10-dihydroanthracen-2-yloxy)-13-oxo-3,6,9,12-tetraoxa-pentadecan-14-aminium 2,2,2-trifluoroacetate] | 41.8 ± 2.24 | 60.6 ± 4.26 | 
Cc1cc(O)c2c(c1)C(=O)c1cc(O)cc(O)c1C2=O [Emodin, 3-methyl-1,6,8-trihydroxyanthraquinone] | 52.7 ± 2.22 | 43.9 ± 1.28 | Selectivity Index MCF-7 (MCF-7 cells; IC50 on normal cells (L02)/IC50 on cancer cells (MCF-7)): 0.43; IC50 (L02 cells): 22.52 ± 0.18 µM; Selectivity Index HepG2 (HepG2 cells; IC50 on normal cells (L02)/IC50 on cancer cells (HepG2)): 0.51
CC(=O)O[C@H]1C(=O)[C@@]2(C)[C@H]([C@H](OC(=O)c3ccccc3)[C@]3(O)C[C@H](OC(=O)[C@H](O)[C@@H](NC(=O)c4ccccc4)c4ccccc4)C(C)=C1C3(C)C)[C@]1(OC(C)=O)CO[C@@H]1C[C@@H]2O [Paclitaxel, reference compound] | 4.89 ± 0.11 | 10.3 ± 0.26 | 
(S)-1-(2-(4,5-Dihydroxy-7-methyl-9,10-dioxo-9,10-dihydroanthracen-2-yloxy)ethoxy)-3-(4-hydroxyphenyl)-1-oxopropan-2-aminium 2,2,2-trifluoroacetate [Compound 3z] |  |  | IC50 (MCF-7 cells): 17.3 ± 0.26 µM; IC50 (HepG2 cells): 14.1 ± 1.22 µM

From paper PMC6429262, “Design and Synthesis of Novel Anti-Proliferative Emodin Derivatives and Studies on their Cell Cycle Arrest, Apoptosis Pathway and Migration” (Molecules, 2019)
